Experimental data taken from patent publication US20250351832A1, “PHYTOCHEMICALS AS BIOPESTICIDES AND BIOSTIMULANTS” (KAY BEE BIO ORGANICS PVT. LTD., priority 2024, published 2025).
Entries after “also recorded” stand apart in the source; their conditions may differ. Where two headings read alike, the source gives them in different places.

Key:
Spodoptera litura [1] = conditions: Spodoptera litura on castor leaves; dose 1 ml/gm/lit.; 10 insects/treatment; 72 hrs after application
Mealy Bug [2] = conditions: Mealy Bug on cotton leaves, dose 1 ml/gm/lit., 48 Hrs.; for Total No. of dead insect at 48 Hrs.: 10 insects/treatment, 4 replications; for % Corrected Mortality at 48 Hrs.: corrected for water control
Thrips [3] = conditions: thrips on cotton plants, greenhouse, dose 1 ml/gm/lit. spray; for % Mortality at 48 Hrs. / Total No. of dead insect at 48 Hrs.: 48 hrs after application; for % Corrected Mortality at 48 Hrs.: corrected for water control
Aphid [4] = conditions: Aphids on cotton plants, green house; dose 1 ml/gm/lit.; 10 insects/plant, 10 plants/treatment; 48 hrs
Alternaria alternata [5] = experiment: Alternaria leaf spot/blight on inoculated tomato plants (Ex. 28); format: in vivo; conditions: tomato plants, Alternaria alternata; after 7 days; dose 1 ml/gm/lit
tomato seedlings = experiment: Response of tomato plants, greenhouse growth (Ex. 30); format: in vivo; conditions: tomato seedlings, dose 1 ml/gm/lit; for Plant Height 5th Day / Stem Girth 5th Day / CCI 5th Day: 5th day after application; for Plant Height 10th Day / Stem Girth 10th Day / CCI 10th Day: 10th day after application; for Plant Height % Increase over pre on 10th Day / Stem Girth % Increase over pre on 10th Day / CCI % Increase over pre on 10th Day / Root Length (cm) 10th Day / Root Length % Increase over control: 10th day; for Root Length % Increase over control: vs water control
Aphid [6] = experiment: whole plant or invertebrate; conditions: 48 h
Helicoverpa armigera [7] = conditions: Helicoverpa armigera on okra fruits, dose 1 ml/gm/lit., 72 Hrs.; for Total No. of dead insect at 72 Hrs.: 10 insects/treatment, 4 replications; for % Corrected Mortality at 72 Hrs.: corrected for water control
Spodoptera litura [8] = conditions: Spodoptera litura 3rd instar on cabbage plants, dose 1 ml/gm/lit. spray; for % Mortality at 72 Hrs.: 72 hrs after application; for % Corrected Mortality at 72 Hrs.: corrected for water control
Thrips [9] = experiment: whole plant or invertebrate; conditions: in Gossypium hirsutum, 48 h
chili seedlings = experiment: Response of chili plants, greenhouse growth (Ex. 31); format: in vivo; conditions: chili seedlings, dose 1 ml/gm/lit; for CCI 5th Day / Plant Height (cm) 5th Day: 5th day after application; for CCI 10th Day / Plant Height (cm) 10th Day: 10th day after application; for CCI % Increase over pre on 10th Day / Plant Height % Increase over pre on 10th Day / Root Lenght (cm) 10th Day / Stem Girth % Increase over pre on 10th Day / Root Lenght % Increase over control: 10th day; for Root Lenght % Increase over control: vs water control
Spodoptera litura [10] = experiment: whole plant or invertebrate; conditions: 72 h
Mealy Bug [11] = conditions: mealy bug on cotton plants, green house, dose 1 ml/gm/lit. spray; for % Mortality at 48 Hrs. / Total No. of dead insect at 48 Hrs.: 48 hrs after application; for % Corrected Mortality at 48 Hrs.: corrected for water control
Mite [12] = conditions: mite on okra plants, green house, dose 1 ml/gm/lit. spray; for % Mortality at 48 Hrs. / Total No. of dead insect at 48 Hrs.: 48 hrs after application; for % Corrected Mortality at 48 Hrs.: corrected for water control
[13] = cited from earlier work; for Phytotonic Effect: Table 13, effect on plants, descriptive
Helicoverpa armigera [14] = conditions: Helicoverpa armigera 3rd instar on chickpea plants, dose 1 ml/gm/lit. spray; for % Mortality at 72 Hrs.: 72 hrs after application; for % Corrected Mortality at 72 Hrs.: corrected for water control
Aphid [15] = conditions: Dose 1 ml/gm/lit.; for Total No. of dead insect at 48 Hrs.: 10 insects/treatment, 4 replications, cotton leaves
Thrips [16] = conditions: Thrips on cotton leaves; dose 1 ml/gm/lit.; 10 insects/treatment; 48 hrs after application
Alternaria alternata [17] = experiment: In vitro poisoned food technique against fungus (Ex. 20); format: cell-based; conditions: poisoned food technique, PDA medium, dose 1 ml/gm/lit., after seven days; for inhibition of growth at 1 mL or g/L: vs untreated control, read-out: % Inhibition of growth
Mite [18] = conditions: Dose 1 ml/gm/lit.; for Total No. of dead insect at 48 Hrs.: 10 insects/treatment, 4 replications, okra leaves
[19] = read-out: % Corrected Mortality at 48 Hrs.
[20] = read-out: % Mortality at 48 Hrs.
[21] = read-out: % Corrected Mortality at 72 Hrs.
[22] = read-out: % Mortality at 72 Hrs.
[23] = Table 13, descriptive, no test described

O=C(/C=C/C=C/c1ccc2c(c1)OCO2)N1CCCCC1 [Piperine]
Total No. of dead insect at 72 Hrs. (Spodoptera litura [1]): 7.25 | Total No. of dead insect at 48 Hrs. (Mealy Bug [2]): 5.25 | % Mortality at 48 Hrs. (Mealy Bug [2]): 52.50% | % Corrected Mortality at 48 Hrs. (Mealy Bug [2]): 50.00% | % Mortality at 48 Hrs. (Thrips [3]): 32.50% | Total No. of dead insect at 48 Hrs. (Thrips [3]): 32.50 | % Corrected Mortality at 48 Hrs. (Thrips [3]): 25.00% | Total No. of dead insect at 48 Hrs. (Aphid [4]): 70.00 | % Disease reduction over Control (Alternaria alternata [5]): 53.72% | Plant Height 5th Day (tomato seedlings): 6.41 cm | Stem Girth 5th Day (tomato seedlings): 1.80 mm | Plant Height 10th Day (tomato seedlings): 7.02 cm | Stem Girth 10th Day (tomato seedlings): 2.24 mm | Plant Height % Increase over pre on 10th Day (tomato seedlings): 30.48% | Stem Girth % Increase over pre on 10th Day (tomato seedlings): 57.52% | CCI 5th Day (tomato seedlings): 13.89 | CCI % Increase over pre on 10th Day (tomato seedlings): 20.71% | Root Length (cm) 10th Day (tomato seedlings): 3.93 cm | CCI 10th Day (tomato seedlings): 14.63 | Root Length % Increase over control (tomato seedlings): 18.18% | mortality at 1 mL or g/L (Aphid [6]; [19]): 64.7% | mortality at 1 mL or g/L (Aphid [6]; [20]): 70% | Total No. of dead insect at 72 Hrs. (Helicoverpa armigera [7]): 7.00 | % Mortality at 72 Hrs. (Helicoverpa armigera [7]): 70.00% | % Corrected Mortality at 72 Hrs. (Helicoverpa armigera [7]): 70.00% | % Mortality at 72 Hrs. (Spodoptera litura [8]): 70.00% | % Corrected Mortality at 72 Hrs. (Spodoptera litura [8]): 68.42% | mortality at 1 mL or g/L (Thrips [9]; [19]): 31.4% | mortality at 1 mL or g/L (Thrips [9]; [20]): 40% | CCI 5th Day (chili seedlings): 13.30 | Plant Height (cm) 5th Day (chili seedlings): 6.30 cm | CCI % Increase over pre on 10th Day (chili seedlings): 38.67% | Plant Height % Increase over pre on 10th Day (chili seedlings): 54.78% | Root Lenght (cm) 10th Day (chili seedlings): 3.25 cm | Stem Girth % Increase over pre on 10th Day (chili seedlings): 39.49% | CCI 10th Day (chili seedlings): 14.2 | Plant Height (cm) 10th Day (chili seedlings): 7.12 cm | Root Lenght % Increase over control (chili seedlings): 18.81% | mortality at 1 mL or g/L (Spodoptera litura [10]; [21]): 71% | mortality at 1 mL or g/L (Spodoptera litura [10]; [22]): 72.5% | % Mortality at 48 Hrs. (Mealy Bug [11]): 57.50% | Total No. of dead insect at 48 Hrs. (Mealy Bug [11]): 57.50 | % Corrected Mortality at 48 Hrs. (Mealy Bug [11]): 52.78% | % Mortality at 48 Hrs. (Mite [12]): 60.00% | Total No. of dead insect at 48 Hrs. (Mite [12]): 60.00 | % Corrected Mortality at 48 Hrs. (Mite [12]): 57.89% | Acaricidal Activity - Mode of action [13, 23]: Cause dehydration of mites | Antifungal Activity - Mode of action [13, 23]: Inhibition of the fungal | Phytotonic Effect [13]: Boost plant | % Mortality at 72 Hrs. (Helicoverpa armigera [14]): 67.50% | % Corrected Mortality at 72 Hrs. (Helicoverpa armigera [14]): 67.50% | Total No. of dead insect at 48 Hrs. (Aphid [15]): 7.00 | % Corrected Mortality at 48 Hrs. (Aphid [15]; 48 hrs): 65.71% | Total No. of dead insect at 48 Hrs. (Thrips [16]): 4.00 | Mean colony Diameter (mm) (Alternaria alternata [17]): 52.00 mm | inhibition of growth at 1 mL or g/L (Alternaria alternata [17]): 40.9% | Total No. of dead insect at 48 Hrs. (Mite [18]): 6.25 | % Corrected Mortality at 48 Hrs. (Mite [18]): 59.46% | % Mortality at 48 Hrs. (Mite [18]): 62.50%

CC12CCC(CC1)C(C)(C)O2 [1,8 cineole]
Total No. of dead insect at 72 Hrs. (Spodoptera litura [1]): 6.00 | Total No. of dead insect at 48 Hrs. (Mealy Bug [2]): 5.50 | % Mortality at 48 Hrs. (Mealy Bug [2]): 55.00% | % Corrected Mortality at 48 Hrs. (Mealy Bug [2]): 52.63% | % Mortality at 48 Hrs. (Thrips [3]): 67.50% | Total No. of dead insect at 48 Hrs. (Thrips [3]): 67.50 | % Corrected Mortality at 48 Hrs. (Thrips [3]): 63.89% | Total No. of dead insect at 48 Hrs. (Aphid [4]): 62.50 | % Disease reduction over Control (Alternaria alternata [5]): 46.28% | Plant Height 5th Day (tomato seedlings): 6.84 cm | Stem Girth 5th Day (tomato seedlings): 1.74 mm | Plant Height 10th Day (tomato seedlings): 7.53 cm | Stem Girth 10th Day (tomato seedlings): 2.16 mm | Plant Height % Increase over pre on 10th Day (tomato seedlings): 29.60% | Stem Girth % Increase over pre on 10th Day (tomato seedlings): 58.82% | CCI 5th Day (tomato seedlings): 13.55 | CCI % Increase over pre on 10th Day (tomato seedlings): 26.08% | Root Length (cm) 10th Day (tomato seedlings): 4.07 cm | CCI 10th Day (tomato seedlings): 14.55 | Root Length % Increase over control (tomato seedlings): 22.24% | mortality at 1 mL or g/L (Aphid [6]; [19]): 55.9% | mortality at 1 mL or g/L (Aphid [6]; [20]): 62.5% | Total No. of dead insect at 72 Hrs. (Helicoverpa armigera [7]): 5.50 | % Mortality at 72 Hrs. (Helicoverpa armigera [7]): 55.00% | % Corrected Mortality at 72 Hrs. (Helicoverpa armigera [7]): 55.00% | % Mortality at 72 Hrs. (Spodoptera litura [8]): 70.00% | % Corrected Mortality at 72 Hrs. (Spodoptera litura [8]): 68.42% | mortality at 1 mL or g/L (Thrips [9]; [19]): 65.7% | mortality at 1 mL or g/L (Thrips [9]; [20]): 70% | CCI 5th Day (chili seedlings): 9.69 | Plant Height (cm) 5th Day (chili seedlings): 6.99 cm | CCI % Increase over pre on 10th Day (chili seedlings): 42.63% | Plant Height % Increase over pre on 10th Day (chili seedlings): 49.60% | Root Lenght (cm) 10th Day (chili seedlings): 3.26 cm | Stem Girth % Increase over pre on 10th Day (chili seedlings): 44.88% | CCI 10th Day (chili seedlings): 12.58 | Plant Height (cm) 10th Day (chili seedlings): 7.54 cm | Root Lenght % Increase over control (chili seedlings): 19.07% | mortality at 1 mL or g/L (Spodoptera litura [10]; [21]): 57.9% | mortality at 1 mL or g/L (Spodoptera litura [10]; [22]): 60% | % Mortality at 48 Hrs. (Mealy Bug [11]): 45.00% | Total No. of dead insect at 48 Hrs. (Mealy Bug [11]): 45.00 | % Corrected Mortality at 48 Hrs. (Mealy Bug [11]): 38.89% | % Mortality at 48 Hrs. (Mite [12]): 22.50% | Total No. of dead insect at 48 Hrs. (Mite [12]): 22.50 | % Corrected Mortality at 48 Hrs. (Mite [12]): 18.42% | Phytotonic Effect [13]: Boost chlorophyll; also recorded: Trigger the nutrition | % Mortality at 72 Hrs. (Helicoverpa armigera [14]): 52.50% | % Corrected Mortality at 72 Hrs. (Helicoverpa armigera [14]): 52.50% | Total No. of dead insect at 48 Hrs. (Aphid [15]): 6.50 | % Corrected Mortality at 48 Hrs. (Aphid [15]; 48 hrs): 60.00% | % Mortality at 48 Hrs. (Aphid [15]; 48 hrs): 65.00% | Total No. of dead insect at 48 Hrs. (Thrips [16]): 7.00 | Mean colony Diameter (mm) (Alternaria alternata [17]): 72.00 mm | inhibition of growth at 1 mL or g/L (Alternaria alternata [17]): 18.2% | Total No. of dead insect at 48 Hrs. (Mite [18]): 2.50 | % Corrected Mortality at 48 Hrs. (Mite [18]): 18.92% | % Mortality at 48 Hrs. (Mite [18]): 25.00%
